Assay results taken from ChEMBL document CHEMBL2074029, “Substrate specificities of rat oatp1 and ntcp: implications for hepatic organic anion uptake” (Am J Physiol Gastrointest Liver Physiol, 2003).

Legend:
Type in all cases: functional, cell-based
[1] = molecular target: T1, Solute carrier organic anion transporter family member 1A1 (Rattus norvegicus, UniProt P46720); experiment: TP_TRANSPORTER: uptake of Tauro-23-norcholate at 20 u M in Oatp1-expressing HeLa cells; conditions: human, 20 µM
T1 sequence (P46720 whole entry): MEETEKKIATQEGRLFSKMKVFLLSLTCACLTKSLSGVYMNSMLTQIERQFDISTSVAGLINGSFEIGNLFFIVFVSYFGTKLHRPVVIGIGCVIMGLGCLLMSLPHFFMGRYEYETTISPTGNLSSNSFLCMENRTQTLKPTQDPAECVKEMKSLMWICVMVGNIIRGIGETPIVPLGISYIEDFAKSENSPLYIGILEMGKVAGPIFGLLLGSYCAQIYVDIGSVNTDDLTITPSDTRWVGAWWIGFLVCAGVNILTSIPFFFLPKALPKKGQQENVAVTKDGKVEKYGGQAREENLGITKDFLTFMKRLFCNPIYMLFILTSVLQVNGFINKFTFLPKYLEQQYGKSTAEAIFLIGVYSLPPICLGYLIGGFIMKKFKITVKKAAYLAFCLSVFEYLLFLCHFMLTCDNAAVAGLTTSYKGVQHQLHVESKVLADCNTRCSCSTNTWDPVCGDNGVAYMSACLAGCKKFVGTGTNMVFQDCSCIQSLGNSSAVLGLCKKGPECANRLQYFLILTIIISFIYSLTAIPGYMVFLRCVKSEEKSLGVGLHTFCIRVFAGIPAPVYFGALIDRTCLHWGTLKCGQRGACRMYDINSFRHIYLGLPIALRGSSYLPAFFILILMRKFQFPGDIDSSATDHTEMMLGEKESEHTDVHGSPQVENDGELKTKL

[2] = molecular target: T1, Solute carrier organic anion transporter family member 1A1; experiment: TP_TRANSPORTER: uptake of 23-Nor-cholate at 20 u M in Oatp1-expressing HeLa cells; conditions: human, 20 µM
[3] = molecular target: T1, Solute carrier organic anion transporter family member 1A1; experiment: TP_TRANSPORTER: uptake of Glyco-23-norcholate at 20 uM in Oatp1-expressing HeLa cells; conditions: human
[4] = molecular target: T1, Solute carrier organic anion transporter family member 1A1; experiment: TP_TRANSPORTER: uptake of Chenodeoxycholate at 20 uM in Oatp1-expressing HeLa cells; conditions: human
[5] = molecular target: T1, Solute carrier organic anion transporter family member 1A1; experiment: TP_TRANSPORTER: uptake of Deoxycholate at 1 uM in Oatp1-expressing HeLa cells; conditions: human
[6] = molecular target: T2, Hepatic sodium/bile acid cotransporter (Rattus norvegicus, UniProt P26435); experiment: TP_TRANSPORTER: uptake of Deoxycholate at a concentration of 1 u M in NTCP-expressing HeLa cells; conditions: human, 1 µM
T2 sequence (P26435 whole entry): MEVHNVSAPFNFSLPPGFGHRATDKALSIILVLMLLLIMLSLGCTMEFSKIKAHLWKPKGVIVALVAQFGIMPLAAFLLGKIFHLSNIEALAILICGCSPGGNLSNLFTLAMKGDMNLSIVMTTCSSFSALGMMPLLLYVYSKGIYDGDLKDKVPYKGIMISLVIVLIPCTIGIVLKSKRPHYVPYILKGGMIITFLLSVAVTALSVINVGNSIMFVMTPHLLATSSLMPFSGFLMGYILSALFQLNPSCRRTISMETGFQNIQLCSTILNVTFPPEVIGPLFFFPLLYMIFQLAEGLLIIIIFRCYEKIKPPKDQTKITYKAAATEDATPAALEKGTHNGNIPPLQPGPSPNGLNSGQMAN

[7] = molecular target: T1, Solute carrier organic anion transporter family member 1A1; experiment: TP_TRANSPORTER: uptake of Glycochenodeoxycholate at 20 uM in Oatp1-expressing HeLa cells; conditions: human
[8] = molecular target: T2, Hepatic sodium/bile acid cotransporter; experiment: TP_TRANSPORTER: uptake of Glycocholate at a concentration of 4 u M in NTCP-expressing HeLa cells; conditions: human, 4 µM
[9] = molecular target: T1, Solute carrier organic anion transporter family member 1A1; experiment: TP_TRANSPORTER: uptake of Glycocholate at 4 u M in Oatp1-expressing HeLa cells; conditions: human, 4 µM
[10] = molecular target: T1, Solute carrier organic anion transporter family member 1A1; experiment: TP_TRANSPORTER: uptake of Glycocholate at 20 u M in Oatp1-expressing HeLa cells; conditions: human, 20 µM
[11] = molecular target: T1, Solute carrier organic anion transporter family member 1A1; experiment: TP_TRANSPORTER: uptake of Glycotrihydroxycoprostanoic acid at 20 u M in Oatp1-expressing HeLa cells; conditions: human, 20 µM
[12] = molecular target: T1, Solute carrier organic anion transporter family member 1A1; experiment: TP_TRANSPORTER: uptake of Glycoursodeoxycholate at 20 u M in Oatp1-expressing HeLa cells; conditions: human, 20 µM
[13] = molecular target: T2, Hepatic sodium/bile acid cotransporter; experiment: TP_TRANSPORTER: uptake of Hyodeoxycholate at a concentration of 1 u M in NTCP-expressing HeLa cells; conditions: human, 1 µM
[14] = molecular target: T1, Solute carrier organic anion transporter family member 1A1; experiment: TP_TRANSPORTER: uptake of Lagodeoxycholate at 1 uM in Oatp1-expressing HeLa cells; conditions: human
[15] = molecular target: T2, Hepatic sodium/bile acid cotransporter; experiment: TP_TRANSPORTER: uptake of Lagodeoxycholate at a concentration of 1 u M in NTCP-expressing HeLa cells; conditions: human, 1 µM
[16] = molecular target: T1, Solute carrier organic anion transporter family member 1A1; experiment: TP_TRANSPORTER: uptake of Muricholate at 1 u M in Oatp1-expressing HeLa cells; conditions: human, 1 µM
[17] = molecular target: T2, Hepatic sodium/bile acid cotransporter; experiment: TP_TRANSPORTER: uptake of Muricholate at a concentration of 1 u M in NTCP-expressing HeLa cells; conditions: human, 1 µM
[18] = molecular target: T1, Solute carrier organic anion transporter family member 1A1; experiment: TP_TRANSPORTER: uptake of Bromosulfophthalein at 1 u M in Oatp1-expressing HeLa cells; conditions: human, 1 µM
[19] = molecular target: T1, Solute carrier organic anion transporter family member 1A1; experiment: TP_TRANSPORTER: uptake of Taurochenodeoxycholate at 20 u M in Oatp1-expressing HeLa cells; conditions: human, 20 µM
[20] = molecular target: T2, Hepatic sodium/bile acid cotransporter; experiment: TP_TRANSPORTER: uptake of Taurolagodeoxycholate at a concentration of 1 u M in NTCP-expressing HeLa cells; conditions: human, 1 µM
[21] = molecular target: T1, Solute carrier organic anion transporter family member 1A1; experiment: TP_TRANSPORTER: uptake of Taurolagodeoxycholate at 1 u M in Oatp1-expressing HeLa cells; conditions: human, 1 µM
[22] = molecular target: T2, Hepatic sodium/bile acid cotransporter; experiment: TP_TRANSPORTER: uptake of Tauromurocholate at a concentration of 1 u M in NTCP-expressing HeLa cells; conditions: human, 1 µM
[23] = molecular target: T1, Solute carrier organic anion transporter family member 1A1; experiment: TP_TRANSPORTER: uptake of Tauromurocholate at 1 u M in Oatp1-expressing HeLa cells; conditions: human, 1 µM
[24] = molecular target: T1, Solute carrier organic anion transporter family member 1A1; experiment: TP_TRANSPORTER: uptake of Taurotrihydroxycoprostanoic acid at 20 u M in Oatp1-expressing HeLa cells; conditions: human, 20 µM
[25] = molecular target: T1, Solute carrier organic anion transporter family member 1A1; experiment: TP_TRANSPORTER: uptake of Tauroursodeoxycholate at 20 u M in Oatp1-expressing HeLa cells; conditions: human, 20 µM
[26] = molecular target: T1, Solute carrier organic anion transporter family member 1A1; experiment: TP_TRANSPORTER: uptake of Trihydroxycoprostanoic acid at 20 uM in Oatp1-expressing HeLa cells; conditions: human
[27] = molecular target: T1, Solute carrier organic anion transporter family member 1A1; experiment: TP_TRANSPORTER: uptake of Ursodeoxycholate at 20 uM in Oatp1-expressing HeLa cells; conditions: human

C[C@H](CC(=O)NCCS(=O)(=O)O)[C@H]1CC[C@H]2[C@@H]3[C@H](O)C[C@@H]4C[C@H](O)CC[C@]4(C)[C@H]3C[C@H](O)[C@]12C
Activity [1]: substrate [+]

C[C@H](CC(=O)O)[C@H]1CC[C@H]2[C@@H]3[C@H](O)C[C@@H]4C[C@H](O)CC[C@]4(C)[C@H]3C[C@H](O)[C@]12C
Activity [2]: substrate [+]

C[C@H](CC(=O)NCC(=O)O)[C@H]1CC[C@H]2[C@@H]3[C@H](O)C[C@@H]4C[C@H](O)CC[C@]4(C)[C@H]3C[C@H](O)[C@]12C
Activity [3]: is not a substrate [-]

C[C@H](CCC(=O)O)[C@H]1CC[C@H]2[C@@H]3[C@H](O)C[C@@H]4C[C@H](O)CC[C@]4(C)[C@H]3CC[C@]12C [CHENODIOL]
Activity [4]: is not a substrate [-]

C[C@H](CCC(=O)O)[C@H]1CC[C@H]2[C@@H]3CC[C@@H]4C[C@H](O)CC[C@]4(C)[C@H]3C[C@H](O)[C@]12C [DEOXYCHOLIC ACID]
Activity [5]: is not a substrate [-] | Activity [6]: is not a substrate [-]

C[C@H](CCC(=O)NCC(=O)O)[C@H]1CC[C@H]2[C@@H]3[C@H](O)C[C@@H]4C[C@H](O)CC[C@]4(C)[C@H]3CC[C@]12C [GLYCOCHENODEOXYCHOLATE]
Activity [7]: is not a substrate [-]

C[C@H](CCC(=O)NCC(=O)O)[C@H]1CC[C@H]2[C@@H]3[C@H](O)C[C@@H]4C[C@H](O)CC[C@]4(C)[C@H]3C[C@H](O)[C@]12C [GLYCOCHOLIC ACID]
Activity [8]: substrate [+] | Activity [9]: substrate [+] | Activity [10]: substrate [+]

CC(CC(=O)NCC(=O)O)[C@H]1CC[C@@H]2C1[C@@H](O)C[C@@H]1C3CC[C@@H](O)CC3C[C@@H](O)[C@H]12 (some centres not stated) [GLYCOTRIHYDROXYCOPROSTANOIC ACID]
Activity [11]: substrate [+]

C[C@H](CCC(=O)NCC(=O)O)[C@H]1CC[C@H]2[C@@H]3[C@@H](O)C[C@@H]4C[C@H](O)CC[C@]4(C)[C@H]3CC[C@]12C [GLYCOURSODEOXYCHOLIC ACID]
Activity [12]: substrate [+]

C[C@H](CCC(=O)O)[C@H]1CC[C@H]2[C@@H]3C[C@H](O)[C@@H]4C[C@H](O)CC[C@]4(C)[C@H]3CC[C@]12C [HYODEOXYCHOLIC_ACID]
Activity [13]: is not a substrate [-]

C[C@H](CCC(=O)O)[C@H]1CC[C@H]2[C@@H]3CC[C@@H]4C[C@H](O)CC[C@]4(C)[C@H]3C[C@@H](O)[C@]12C [LAGODEOXYCHOLATE]
Activity [14]: is not a substrate [-] | Activity [15]: is not a substrate [-]

C[C@H](CCC(=O)O)C1CC[C@H]2[C@@H]3C(O)C(O)C4C[C@H](O)CC[C@]4(C)[C@H]3CC[C@]12C (some centres not stated) [MURICHOLATE]
Activity [16]: substrate [+] | Activity [17]: substrate [+]

O=C1OC(c2ccc(O)c(S(=O)(=O)[O-])c2)(c2ccc(O)c(S(=O)(=O)[O-])c2)c2c(Br)c(Br)c(Br)c(Br)c21.[Na+].[Na+] [SULFOBROMOPHTHALEIN SODIUM]
Activity [18]: substrate [+]

C[C@H](CCC(=O)NCCS(=O)(=O)O)[C@H]1CC[C@H]2[C@@H]3[C@H](O)C[C@@H]4C[C@H](O)CC[C@]4(C)[C@H]3CC[C@]12C [TAUROCHENODEOXYCHOLATE]
Activity [19]: substrate [+]

C[C@H](CCC(=O)NCCS(=O)(=O)O)[C@H]1CC[C@H]2[C@@H]3CC[C@H]4C[C@H](O)CC[C@]4(C)[C@H]3C[C@@H](O)[C@]12C [TAUROLAGODEOXYCHOLATE]
Activity [20]: substrate [+] | Activity [21]: substrate [+]

C[C@H](CCC(=O)NCCS(=O)(=O)O)[C@H]1CC[C@H]2[C@@H]3C[C@@H](O)[C@@H]4C[C@H](O)CC[C@]4(C)[C@H]3CC[C@]12C [TAUROMUROCHOLATE]
Activity [22]: substrate [+] | Activity [23]: substrate [+]

CC(CCC[C@@H](C)C1CC[C@H]2[C@@H]3[C@H](O)C[C@]4(C(=O)O)C[C@H](O)CC[C@]4(C)[C@H]3C[C@H](O)[C@]12C)C(=O)NCCS(=O)(=O)O (some centres not stated) [TAUROTRIHYDROXYCOPROSTANOIC ACID]
Activity [24]: substrate [+]

C[C@H](CCC(=O)NCCS(=O)(=O)O)[C@H]1CC[C@H]2[C@@H]3[C@@H](O)C[C@@H]4C[C@H](O)CC[C@]4(C)[C@H]3CC[C@]12C [TAURURSODIOL]
Activity [25]: substrate [+]

CC(C)CCC[C@@H](C)C1CC[C@H]2[C@@H]3[C@H](O)C[C@]4(C(=O)O)C[C@H](O)CC[C@]4(C)[C@H]3C[C@H](O)[C@]12C (some centres not stated) [TRIHYDROXYCOPROSTANOIC ACID]
Activity [26]: is not a substrate [-]

C[C@H](CCC(=O)O)[C@H]1CC[C@H]2[C@@H]3[C@@H](O)C[C@@H]4C[C@H](O)CC[C@]4(C)[C@H]3CC[C@]12C [URSODIOL]
Activity [27]: is not a substrate [-]
